Test results reported in patent publication US6627641B1, “Antimalarial naphthylisoquinoline alkaloids and pharmaceutical compositions and medical uses thereof” (The United States of America as represented by the …, priority 1994, dated 2003).
≈ marks a conversion by molar mass, not a printed value.

How the values were obtained:
[1] = test system: P. falciparum (NF54 strain, clone A149); assay: In vitro 3H-hypoxanthine incorporation test with P. falciparum NF 54; format: cell-based, Plasmodium falciparum; conditions: NF 54, clone A149; six repeats; max. concentration 50 or 5 μg/ml
Description: Continuous in vitro cultures of asexual erythrocytic stages of P. falciparum (strain NF 54/64, clone A1A9) were maintained following essentially the method of Trager and Jensen (Science, 193, 673-675, 1976) at 37° C. under an atmosphere of 5% CO2, 5% O2, and 90% N2. The host cells were human erythrocytes (A or O Rh+). The culture medium was RPMI 1640 (Gibco), containing HEPES (BDH; 4.57 gL^−1), glucose (Sigma; 1.54 gL^−1), 5% NaHCO3 (Merck; 34.78 mlL^−1), and gentamycin (Merck; 8.70 mlL^−1) supplemented with 10% human plasma (A Rh+). Parasites were subinoculated every 3-4 days with initial conditions of 1% parasitemia and 1% hematocrit.
(§1) In vitro testing with P. falciparum was as follows. Each compound was dissolved in DMSO at a concentration of 20 mg ml^−1. These solutions were further diluted with physiological saline to obtain a stock solution of 500 μg ml^−1. Each test substance was applied in a series of seven, 4-fold dilutions (maximum concentrations 50 or 5 μg ml^−1). Each compound was tested in 6-fold repeats. Chloroquine was tested similarly, as a positive control.
(§2) The test protocol was performed in vitro, based upon the method of Desjardins, et al. (Antimicrobial Agents Chemother., 16, 710-715, 1979). The parasites (200 μl of a suspension with initial parasitemia of 0.5% and hematocrit of 1.5%) were incubated for 24 h in microtitre plates (Falcon MicroTest III) in hypoxanthine-free medium in the presence of 25 μl of test solution. The plates contained a negative control (6 wells with non-parasitized RBC's, no drug) and a positive control (6 wells with parasitized RBC's no drug). Thereafter, 25 μl of ^3H-hypoxanthine solution (Amersham) was added (0.5 μCi well ^−1), and the parasites were incubated for a further period of 18 h. Each well was harvested with a Cell Harvester (Nunc). The filter papers were dried for 2 h at 52° C., and their radioactivity was measured by liquid scintillation counting in Optiscint HiSafe (LKB Pharmacia).
(§3) The mean results, obtained as counts per min (cpm), were expressed as percentages of incorporation or growth inhibition. The sigmoid dose-response curve was then linearized by probit analysis with the aid of software provided by IWONL (Gent), adapted by G. Timperman and used to derive the IC50 values.

P. berghei (Anka) = assay: In vitro 3H-hypoxanthine incorporation test with P. berghei (Anka); format: cell-based, Plasmodium berghei; conditions: Anka strain
Description: as §1, §2, §3
For experiments with P. berghei (Anka strain), the parasites were maintained, and the in vitro tests performed essentially the same as above, except for the following modification. In the case of tests using P. berghei, the parasites were incubated in the same conditions as for P. falciparum (above) except that the incubations were started immediately in the presence of the ^3H-hypoxanthine and for 24 hour total duration (i.e., no delay in the addition of the ^3H-hypoxanthine). As before, the incorporated radioactivity was used as a-measure for parasite growth.

[2] = test system: P. falciparum (K1 strain); assay: In vitro 3H-hypoxanthine incorporation test with chloroquine-resistant P. falciparum K1; format: cell-based, Plasmodium falciparum
Description: Selected compounds were also tested against drug-resistant parasites. The method was the same as above except for the following modifications. The parasite used was the chloroquine-resistant strain, K1, maintained essentially according to Desjardins, et al. (supra, 1979). The culture medium was RPMI-1640 containing TES (Sigma; 7.64 gL^−1), glucose (BDH; 1.67 gL^−1), NaHCO3 (BDH; 1.94 gL^−1), and gentamycin (Nicholas; 30 mgL^−1) supplemented with 10% human serum (A RH+). Parasites were subinoculated every 3-4 days with initial conditions of 1% parasitemia and 2.5% hematocrit. For the testing, small aliquots of test material were dissolved in 20 μl EtOH and RPMI 1640 to give solutions of 1 or 10 mg ml^−1. Each was applied in a series of twelve, […] dilutions (final […] ranging from 50 to 1.19×10^−3 μg ml^−1). Chloroquine diphosphate (Sigma) was used in the same experiments as a reference and also in twelve, 4-fold dilutions (final concentrations 2×10^−5-1.19×10^−12M). Each compound was tested in duplicate.
Testing was performed in vitro based upon the method of Desjardins, et al (supra, 1979), as modified by O'Neill, et al. (Planta Med., 51, 394-399, 1985) and Ekong, et al. (Biochem. Pharmacol., 40, 297-301, 1990). The parasites (50 μl initial parasitemia of 1%, hematocrit of 5%) were incubated for 24 h in microtitre plates (Nunc) in normal (not hypoxanthine-depleted) medium in the presence of 50 μl of test solution. Controls were set up in each test by preparing 12-24 wells with non-parasitized RBC's and no test solution and 12-24 wells with parasitized RBC's and no test compound. Thereafter, 5 μl all of ^3H-hypoxanthine (Amersham) were added (0.2 μCi well ^−1), and the parasites incubated for a further period of 18 h. Each well was harvested with a Cell Harvester (Skatron). Glass fibre filters were dried briefly. Radioactivity was measured by liquid scintillation counting in Ecoscint (National Diagnostics).
The results obtained as cpm were expressed as percentages of incorporation of growth inhibition. The dose-related part of the sigmoidal curves obtained were linearized by regression analysis with the aid of software developed by S. Grant (I.SHTM) and used to calculate the IC50 values.

In the case of `COc1cc2c(c(OC)c1-c1ccc(OC)c3c(OC)cc(C)cc13)[C@@H](C)N(C)[C@@H](C)C2` [Ancistrobrevine A], the “IC50 P. falciparum NF54 strain” value [1] was 19.336 µg/mL (≈ 44.4 µM).

`COc1cccc2c(-c3ccc4c(c3O)[C@@H](C)N[C@H](C)C4)c(C)cc(OC)c12` [Dioncophylline A] was tested, and the “IC50 P. berghei, Anka” value (P. berghei (Anka)) was 0.961 µg/mL (≈ 2.55 µM), the “IC50 P. falciparum, K1 strain” value [2] was 0.860 µg/mL (≈ 2.28 µM) and the “IC50 P. falciparum NF54 strain” value [1] was 1.443 µg/mL (≈ 3.82 µM).

With 7-epi-dioncophylline A the “IC50 P. falciparum NF54 strain” value [1] was 0.190 µg/mL.

For `COc1c(C)nc(C)c2c(OC)c(-c3c(C)cc(OC)c4c(OC)cccc34)ccc12` [(±)-dioncophyllacine A], the “IC50 P. falciparum NF54 strain” value [1] was 17.571 µg/mL (≈ 42.1 µM).

With Ancistrobrevine D the “IC50 P. berghei, Anka” value (P. berghei (Anka)) was 6.069 µg/mL, the “IC50 P. falciparum, K1 strain” value [2] was 10.440 µg/mL and the “IC50 P. falciparum NF54 strain” value [1] was 12.222 µg/mL.

N-formyl-dioncophylline C was tested, and the “IC50 P. falciparum NF54 strain” value [1] was 3.132 µg/mL.

With N-formyl-ancistrocladine the “IC50 P. falciparum NF54 strain” value [1] was 8.129 µg/mL.

With N-methyl-ancistrocladine the “IC50 P. falciparum NF54 strain” value [1] was 0.491 µg/mL.

For Michellamine B, the “IC50 P. berghei, Anka” value (P. berghei (Anka)) was greater than 50 µg/mL and the “IC50 P. falciparum NF54 strain” value [1] was 20.185 µg/mL.

For Dioncophylleine A, the “IC50 P. falciparum NF54 strain” value [1] was 21.295 µg/mL.

6-deoxy-N-methyl-ancistrocladine was tested, and the “IC50 P. falciparum NF54 strain” value [1] was 10.079 µg/mL.

For `COc1cccc2c(-c3ccc4c(c3O)C(C)N(C)C(C)C4)c(C)cc(OC)c12` (single isomer, unassigned) [N-methyl-dioncophylline A (atropisomers)], the “IC50 P. falciparum NF54 strain” value [1] was 17.411 µg/mL (≈ 44.5 µM).
